The text below walks through data of patent US10364238B2, “N-((het) arylmethyl)-heteroaryl-carboxamides compounds as plasma kallikrein inhibitors” (KALVISTA PHARMACEUTICALS LIMITED, priority 2014, dated 2019).

For one assay, the target named is Human plasma kallikrein (Homo sapiens (Human), UniProt P03952). The experiment in a line: Determination of the IC50 for plasma kallikrein. It is filed as biochemical. To be noted: 25° C., fluorogenic substrate H-DPro-Phe-Arg-AFC; read-out: IC50 (human PKaI). On the procedure:
Determination of the IC50 for Plasma Kallikrein
Human plasma kallikrein (Protogen) was incubated at 25° C. with the fluorogenic substrate H-DPro-Phe-Arg-AFC and various concentrations of the test compound. Residual enzyme activity (initial rate of reaction) was determined by measuring the change in […] at 410 nm and the IC50 value for the test compound was determined.

For another assay, the target named is Human KLK1 (Homo sapiens (Human), UniProt P06870). Kind of assay: Determination of the IC50 for KLK1. The class given is biochemical. The following applies: 25° C., fluorogenic substrate H-DVal-Leu-Arg-AFC. The procedure:
Determination of the IC50 for KLK1
Human KLK1 (Callbiochem) was incubated at 25° C. with the fluorogenic substrate H-DVal-Leu-Arg-AFC and various concentrations of the test compound. Residual enzyme activity (initial rate of reaction) was determined by measuring the change in […] at 410 nm and the IC50 value for the test compound was determined.

Human plasma kallikrein, sequence (P03952 391-638): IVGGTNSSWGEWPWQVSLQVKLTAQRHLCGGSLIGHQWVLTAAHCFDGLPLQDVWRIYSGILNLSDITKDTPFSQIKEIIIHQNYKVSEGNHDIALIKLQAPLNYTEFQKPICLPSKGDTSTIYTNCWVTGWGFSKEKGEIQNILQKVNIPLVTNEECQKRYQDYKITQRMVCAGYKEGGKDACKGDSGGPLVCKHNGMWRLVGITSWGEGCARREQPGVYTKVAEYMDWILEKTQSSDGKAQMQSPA
Human plasma kallikrein, sequence (P03952 20-390 partner): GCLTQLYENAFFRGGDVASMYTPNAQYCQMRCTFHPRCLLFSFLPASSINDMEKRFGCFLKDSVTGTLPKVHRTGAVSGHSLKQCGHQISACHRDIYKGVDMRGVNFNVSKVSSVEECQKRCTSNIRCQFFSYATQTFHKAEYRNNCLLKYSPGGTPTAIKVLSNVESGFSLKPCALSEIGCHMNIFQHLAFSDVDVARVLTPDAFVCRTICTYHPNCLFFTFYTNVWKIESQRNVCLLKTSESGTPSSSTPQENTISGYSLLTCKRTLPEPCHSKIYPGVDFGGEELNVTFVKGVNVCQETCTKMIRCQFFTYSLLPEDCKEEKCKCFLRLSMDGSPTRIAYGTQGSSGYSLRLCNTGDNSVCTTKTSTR
Human KLK1, sequence (P06870 25-262): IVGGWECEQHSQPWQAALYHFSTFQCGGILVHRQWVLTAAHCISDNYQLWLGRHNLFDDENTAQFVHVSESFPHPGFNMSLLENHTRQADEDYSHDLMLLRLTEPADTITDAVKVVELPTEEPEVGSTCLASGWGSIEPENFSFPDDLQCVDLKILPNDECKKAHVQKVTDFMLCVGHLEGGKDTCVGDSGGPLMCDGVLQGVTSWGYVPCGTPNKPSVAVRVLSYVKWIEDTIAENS

By IC50 is commonly meant the concentration that inhibits the measured activity by half. With `Cc1cnn(Cc2ccc(Cn3cc(C(=O)NCc4cc(Cl)ccc4C(F)(F)F)c(C(F)(F)F)n3)cc2)c1` [Example 23, N-{[5-chloro-2-(trifluoromethyl)phenyl]methyl}-1-({4-[(4-methylpyrazol-1-yl)methyl]phenyl}methyl)-3-(trifluoromethyl)pyrazole-4-carboxamide], the figures for the IC50 on Human plasma kallikrein and at Human KLK1 were 1.06 µM and more than 10 µM, respectively.

As to `Cc1ccc(CNC(=O)c2cn(Cc3ccc(Cn4cc(C)cn4)cc3)nc2C(F)(F)F)c(F)c1` [Example 28, N-[(2-fluoro-4-methylphenyl)methyl]-1-({4-[(4-methylpyrazol-1-yl)methyl]phenyl}methyl)-3-(trifluoromethyl)pyrazole-4-carboxamide], the IC50 at Human plasma kallikrein was 0.28 µM; against Human KLK1 it was more than 10 µM.

For the compound `Cc1cnn(Cc2ccc(Cn3cc(C(=O)NCc4cccc(Cl)c4F)c(C(F)(F)F)n3)cc2)c1` [Example 19, N-[(3-chloro-2-fluorophenyl)methyl]-1-({4-[(4-methylpyrazol-1-yl)methyl]phenyl}methyl)-3-(trifluoromethyl)pyrazole-4-carboxamide], the IC50 at Human plasma kallikrein is 1.13 µM; at Human KLK1 it was more than 10 µM. In the case of `Cc1cnn(Cc2ccc(Cn3cc(C(=O)NCc4c(F)cccc4C(F)(F)F)c(C(F)(F)F)n3)cc2)c1` [Example 15, N-{[2-fluoro-6-(trifluoromethyl)phenyl]methyl}-1-({4-[(4-methylpyrazol-1-yl)methyl]phenyl}methyl)-3-(trifluoromethyl)pyrazole-4-carboxamide], the values for the IC50 at Human plasma kallikrein and on Human KLK1 were 0.219 µM and more than 10 µM, respectively. `COCc1nn(Cc2ccc(Cn3cc(C)cn3)cc2)cc1C(=O)NCc1csc2ccc(Cl)cc12` [Example 47, N-[(5-chloro-1-benzothiophen-3-yl)methyl]-3-(methoxymethyl)-1-({4-[(4-methylpyrazol-1-yl)methyl]phenyl}methyl)pyrazole-4-carboxamide]: the IC50 is 0.753 µM on Human plasma kallikrein and more than 10 µM on Human KLK1. The corresponding values for `COc1cccc(CNC(=O)c2cn(Cc3ccc(Cn4cc(C)cn4)cc3)nc2C(F)(F)F)c1` [Example 5, N-[(3-methoxyphenyl)methyl]-1-({4-[(4-methylpyrazol-1-yl)methyl]phenyl}methyl)-3-(trifluoromethyl)pyrazole-4-carboxamide] are 0.364 µM and more than 10 µM.

Turning to `Cc1cnn(Cc2ccc(Cn3cc(C(=O)NCc4c(C(F)(F)F)ccc(Cl)c4F)c(C(F)(F)F)n3)cc2)c1` [Example 21, N-{[3-chloro-2-fluoro-6-(trifluoromethyl)phenyl]methyl}-1-({4-[(4-methylpyrazol-1-yl)methyl]phenyl}methyl)-3-(trifluoromethyl)pyrazole-4-carboxamide], the values for the IC50 at Human plasma kallikrein and on Human KLK1 were 0.257 µM and more than 10 µM, respectively. For `Cc1cnn(Cc2ccc(Cn3cc(C(=O)NCc4c(C)cccc4C)c(C(F)(F)F)n3)cc2)c1` [Example 25, N-[(2,6-dimethylphenyl)methyl]-1-({4-[(4-methylpyrazol-1-yl)methyl]phenyl}methyl)-3-(trifluoromethyl)pyrazole-4-carboxamide], in that order: 1.84 µM and more than 10 µM. In the case of `COCc1nn(Cc2ccc(Cn3ccccc3=O)cc2)cc1C(=O)NCc1cc(OC)ccc1C(N)=O` [Example 86, N-[(2-carbamoyl-5-methoxyphenyl)methyl]-3-(methoxymethyl)-1-({4-[(2-oxopyridin-1-yl)methyl]phenyl}methyl)pyrazole-4-carboxamide], the IC50 on Human plasma kallikrein was 0.0087 µM; at Human KLK1 it was more than 40 µM. The corresponding values for `Cc1cnn(Cc2ccc(Cn3cc(C(=O)NCc4c(F)cccc4F)c(C(F)(F)F)n3)cc2)c1` [Example 13, N-[(2,6-difluorophenyl)methyl]-1-({4-[(4-methylpyrazol-1-yl)methyl]phenyl}methyl)-3-(trifluoromethyl)pyrazole-4-carboxamide] are 0.439 µM and more than 10 µM. For the compound `COCc1nn(Cc2ccc(Cn3ccccc3=O)cc2)cc1C(=O)NCc1c(F)cccc1C(F)F` [Example 80, N-{[2-(difluoromethyl)-6-fluorophenyl]methyl}-3-(methoxymethyl)-1-({4-[(2-oxopyridin-1-yl)methyl]phenyl}methyl)pyrazole-4-carboxamide], the IC50 at Human plasma kallikrein is 0.0204 µM; at Human KLK1, more than 40 µM. The corresponding values for `Cc1cnn(Cc2ccc(Cn3cc(C(=O)NCc4cc(Cl)ccn4)c(C(F)(F)F)n3)cc2)c1` [Example 30, N-[(4-chloropyridin-2-yl)methyl]-1-({4-[(4-methylpyrazol-1-yl)methyl]phenyl}methyl)-3-(trifluoromethyl)pyrazole-4-carboxamide] are 0.915 µM and more than 10 µM. For `COc1ccc(CNC(=O)c2cn(Cc3ccc(Cn4cc(C)cn4)cc3)nc2C(F)(F)F)c(OC)c1` [Example 10, N-[(2,4-dimethoxyphenyl)methyl]-1-({4-[(4-methylpyrazol-1-yl)methyl]phenyl}methyl)-3-(trifluoromethyl)pyrazole-4-carboxamide], in that order: 1.27 µM and more than 10 µM. On to `Cc1cnn(Cc2ccc(Cn3cc(C(=O)NCc4c(F)cccc4Cl)c(C(F)(F)F)n3)cc2)c1` [Example 14, N-[(2-chloro-6-fluorophenyl)methyl]-1-({4-[(4-methylpyrazol-1-yl)methyl]phenyl}methyl)-3-(trifluoromethyl)pyrazole-4-carboxamide], for which the results for the IC50 at Human plasma kallikrein and at Human KLK1 were 0.514 µM and more than 10 µM, respectively. For `Cc1ccc(CNC(=O)c2cn(Cc3ccc(Cn4cc(C)cn4)cc3)nc2C(F)(F)F)c(C)c1` [Example 24, N-[(2,4-dimethylphenyl)methyl]-1-({4-[(4-methylpyrazol-1-yl)methyl]phenyl}methyl)-3-(trifluoromethyl)pyrazole-4-carboxamide], in that order: 0.717 µM and more than 10 µM. With `Cc1cnn(Cc2ccc(Cn3cc(C(=O)NCc4ncccc4F)c(C(F)(F)F)n3)cc2)c1` [Example 29, N-[(3-fluoropyridin-2-yl)methyl]-1-({4-[(4-methylpyrazol-1-yl)methyl]phenyl}methyl)-3-(trifluoromethyl)pyrazole-4-carboxamide], the values for the IC50 on Human plasma kallikrein and on Human KLK1 were 2.19 µM and more than 10 µM, respectively. With `COc1ccc(CNC(=O)c2cn(Cc3ccc(Cn4cc(C)cn4)cc3)nc2C(F)(F)F)c(C(F)(F)F)c1` [Example 12, N-{[4-methoxy-2-(trifluoromethyl)phenyl]methyl}-1-({4-[(4-methylpyrazol-1-yl)methyl]phenyl}methyl)-3-(trifluoromethyl)pyrazole-4-carboxamide], the IC50 was 0.746 µM on Human plasma kallikrein and more than 10 µM against Human KLK1.

Turning to `Cc1cnn(Cc2ccc(Cn3cc(C(=O)NCc4cccc(OC(F)(F)F)c4)c(C(F)(F)F)n3)cc2)c1` [Example 7, 1-({4-[(4-methylpyrazol-1-yl)methyl]phenyl}methyl)-N-{[3-(trifluoromethoxy)phenyl]methyl}-3-(trifluoromethyl)pyrazole-4-carboxamide], the IC50 on Human plasma kallikrein and against Human KLK1 was more than 10 µM each time. Regarding `Cc1ccc(CNC(=O)c2cn(Cc3ccc(Cn4cc(C)cn4)cc3)nc2C(F)(F)F)cc1` [Example 8, N-[(4-methylphenyl)methyl]-1-({4-[(4-methylpyrazol-1-yl)methyl]phenyl}methyl)-3-(trifluoromethyl)pyrazole-4-carboxamide], the IC50 on Human plasma kallikrein was 0.539 µM; on Human KLK1 it was more than 10 µM. `Cc1cnn(Cc2ccc(Cn3cc(C(=O)NCc4ccc(Cl)cc4F)c(C(F)(F)F)n3)cc2)c1` [Example 17, N-[(4-chloro-2-fluorophenyl)methyl]-1-({4-[(4-methylpyrazol-1-yl)methyl]phenyl}methyl)-3-(trifluoromethyl)pyrazole-4-carboxamide]: the IC50 was 0.865 µM on Human plasma kallikrein and more than 10 µM on Human KLK1. For `COCc1nn(Cc2ccc(Cn3ccccc3=O)cc2)cc1C(=O)NCc1cnccc1C(F)(F)F` [Example 31, 3-(methoxymethyl)-1-({4-[(2-oxopyridin-1-yl)methyl]phenyl}methyl)-N-{[4-(trifluoromethyl)pyridin-3-yl]methyl}pyrazole-4-carboxamide], in that order: 0.392 µM and more than 10 µM. Consider `COc1ccc(F)c(CNC(=O)c2cn(Cc3ccc(Cn4cc(C)cn4)cc3)nc2C(F)(F)F)c1` [Example 9, N-[(2-fluoro-5-methoxyphenyl)methyl]-1-({4-[(4-methylpyrazol-1-yl)methyl]phenyl}methyl)-3-(trifluoromethyl)pyrazole-4-carboxamide], for which the IC50 was 0.239 µM at Human plasma kallikrein and more than 10 µM against Human KLK1.

With `Cc1cnn(Cc2ccc(Cn3cc(C(=O)NCc4cc(Cl)ccc4F)c(C(F)(F)F)n3)cc2)c1` [Example 20, N-[(5-chloro-2-fluorophenyl)methyl]-1-({4-[(4-methylpyrazol-1-yl)methyl]phenyl}methyl)-3-(trifluoromethyl)pyrazole-4-carboxamide], the IC50 at Human plasma kallikrein is 0.74 µM; at Human KLK1, more than 10 µM.

Take `Cc1cnn(Cc2ccc(Cn3cc(C(=O)NCc4c(F)ccc(Cl)c4F)c(C(F)(F)F)n3)cc2)c1` [Example 18, N-[(3-chloro-2,6-difluorophenyl)methyl]-1-({4-[(4-methylpyrazol-1-yl)methyl]phenyl}methyl)-3-(trifluoromethyl)pyrazole-4-carboxamide]: the figures for the IC50 on Human plasma kallikrein and against Human KLK1 were 0.373 µM and more than 10 µM, respectively. Turning to `COc1cc(F)c(CNC(=O)c2cn(Cc3ccc(Cn4cc(C)cn4)cc3)nc2C(F)(F)F)c(F)c1` [Example 11, N-[(2,6-difluoro-4-methoxyphenyl)methyl]-1-({4-[(4-methylpyrazol-1-yl)methyl]pheny}methyl)-3-(trifluoromethyl)pyrazole-4-carboxamide], the IC50 on Human plasma kallikrein is 0.456 µM.
